Test [1] concerns EV-D68 US/MO/14-18947. Description: CPE assay (neutral red) with EV-D68 US/MO/14-18947 in R.D. cells. The class given is cell-based, Enterovirus D68. To be noted: CPE assay, EV-D68 US/MO/14-18947 in R.D. cells; for EC50: read-out: Antiviral EC50. On the procedure: Cell lines and viruses. Human rhabdomyosarcoma (R.D., ATCC, CCL-136) cells were maintained at 37° C. in a 5% CO2 atmosphere and cultured in Dulbecco's modified Eagle's medium (DMEM) supplemented with 10% fetal bovine serum (FBS) and 1% penicillin-streptomycin antibiotics. The following reagents were obtained through BEI Resources, NIAID, NIH: Human Enterovirus D68, US/MO/14-18949, NR-49130; Enterovirus D68, US/MO/14-18947, NR-49129; Enterovirus D68, US/IL/14-18952, NR-49131; Enterovirus D68, US/KY/14-18953, NR-49132; Enterovirus D68, US/IL/14-18956, NR-49133.
Antiviral assays. Cells for antiviral assays were seeded and grown overnight at 37° C. in a 5% CO2 atmosphere for ˜90% confluency the next day. For all infections, cells were washed with PBS containing magnesium and calcium and infected with virus diluted in DMEM with 2% FBS and 30 mM MgCl2. Viruses were incubated for at least 1 h at 33° C. in a 5% CO2 atmosphere, followed by the addition of compound as well as 1% penicillin-streptomycin. For CC50 measurements, the experiment was performed similarly but excluded viral infection. For cytopathic effect (CPE) assays, cells were stained with 66 µg/mL neutral red for 2 h and neutral red uptake was measured at absorbance 540 nm using a Multiskan FC Microplate Photometer (ThermoFisher Scientific). The EC50 and CC50 values were calculated from best-fit dose response curves using GraphPad Prism. For plaque reduction assays, an 1.2% avicel microcrystalline cellulose (FMC BioPolymer, Philadelphia, PA) overlay was used and cells were stained after 3 days as previously described^26.

Test [2] addresses T1, EV-D68 2A^pro (WT-2A^pro, strain US/KY/14-18953, expressed in E. coli BL21(DE3) from pE-SUMOstar vector) (enterovirus D68, UniProt A0A097BW19).
T1 construct: E. coli-codon-optimised gene, pE-SUMOstar, His-SUMO tag (removed with SUMO protease for nontagged form), E. coli BL21(DE3), Ni-NTA; 7JRE is the C107A mutant
In words: FRET-based enzymatic assay of EV-D68 2A^pro inhibition (FRET substrate Dabcyl-KIRIVNT/GPGFGGE-Edans). The class given is biochemical. As for the experimental part:
FIG. 4. […] Key structural variations compared to telaprevir were highlighted in red. Enzymatic inhibitory activity IC50 value was determined in the FRET-based assay. Antiviral EC50 value was determined in the CPE assay with EV-D68 US/MO/14-18947 in R.D. cells. Cytotoxicity CC50 value was determined using the neutral red uptake method in R.D. cells. The results are the mean±standard deviation of two independent experiments with three repeats in each experiment.
FIG. 5. […] Key structural variations compared to Jun8861 were highlighted in red. Enzymatic inhibitory activity IC50 value was determined in the FRET-based assay. Antiviral EC50 value was determined in the CPE assay with EV-D68 US/MO/14-18947 in R.D. cells. Cytotoxicity CC50 value was determined using the neutral red uptake method in R.D. cells. The results are the mean±standard deviation of two independent experiments with three repeats in each experiment.
Protein expression and purification. EV-D68 2A^pro gene from strain US/KY/14-18953 was ordered from Genscript (Piscataway, NJ) in pET28b(+) vector with E. coli codon optimization. 2A^pro gene was subcloned into pE-SUMOstar vector according to the manufacturers protocol. Plasmid encoding WT-2A^pro was transformed into BL21(DE3) competent E. coli cells, and a single colony was picked and used to inoculate 10 mL of L.B. grown supplemented with 50 μg/mL kanamycin at 37° C. at 250 rpm. The 10 mL inoculant was added to 1 L of L.B. with 50 μg/mL kanamycin and grown to an OD600 of 0.8-1.0, cooled to 18° C., then induced using 0.5 mM IPTG. Induced cultures were incubated at 18° C. for an additional 24 h, then harvested and resuspended in lysis buffer (25 mM Tris (pH 7.5); 750 mM NaCl, 2 mM DTT with 0.5 mg/mL lysozyme, 0.5 mM PMSF and 0.02 mg/mL DNase I) and lysed with alternating sonication and French press cycles. The cell debris were removed by centrifugation at 12,000×g for 45 min […]. The supernatant was incubated with Ni-NTA resin for over 2 h at 4° C. on a rotator. The Ni-NTA resin was thoroughly washed with 50 mM imidazole in wash buffer (50 mM Tris (pH 7.5), 150 mM NaCl, and 2 mM DTT); for the SUMO-tagged protein, the protein was directly eluted with 300 mM imidazole; for the nontagged 2A^pro Ni-NTA resin was treated with SUMO Protease 1 to remove the SUMO tag, then 2A^pro was washed off from the column with 10 mM imidazole in wash buffer. The imidazole was removed via dialysis or 10 K molecular weight cut-off centrifugal concentrator spin column. The purity of the protein was confirmed with SDS-PAGE. The protein concentration was determined by classic BCA assay using bovine serum albumin as a standard. EV-D68 3C^pro in pET28b(+) vector was expressed as previously described^10.
Peptide synthesis. The FRET substrate of EV-D68 2A^pro, Dabcyl-KIRIVNT/GPGFGGE-Edans, was synthesized using the Fmoc solid phase synthesis strategy.
Enzymatic assays. The reaction buffer contains 50 mM Tris (pH7.0), 150 mM NaCl, 10% Glycerol, and 2 mM DTT, and the reaction was carried out at 30° C. in Cytation 5 imaging reader (Fisher Scientific) with EX360/40-EM460/40 filter. Reactions were monitored every 90 sec. […] The reaction was initiated by adding 20 μM of FRET substrate, and the reaction was monitored for 2 hours and initial velocity was calculated for the first 30 minutes via linear regression.

The structures appear in SMILES notation. Where two headings read alike, the source gives them in different places.

Consider `CC(C)(C)[C@H](NC(=O)CC12CC3CC(CC(C3)C1)C2)C(=O)N1C[C@@H]2CCC[C@@H]2[C@H]1C(=O)N[C@@H](CC1CC1)C(=O)C(=O)NC1CC1` [Jun11761, (1S,3aR,6aS)-2-((S)-2-(2-((3S,5S,7S)-adamantan-1-yl)acetamido)-3,3-dimethylbutanoyl)-N—((S)-1-cyclopropyl-4-(cyclopropylamino)-3,4-dioxobutan-2-yl)octahydrocyclopenta[c]pyrrole-1-carboxamide], for which the “antiviral activity, in words, relative to the named comparator” value in test [1] is “failed to improve the antiviral potency compared to Jun8861”. Also, inhibition in test [2] was half-maximal at 140 ± 10 nM (IC50).
Compound `CC(C)(C)[C@H](NC(=O)CC12CC3CC(CC(C3)C1)C2)C(=O)N1C[C@@H]2CCC[C@@H]2[C@H]1C(=O)NC1(C(=O)C(=O)NC2CC2)CCC1` [Jun11806, (1S,3aR,6aS)-2-((S)-2-(2-((3S,5S,7S)-adamantan-1-yl)acetamido)-3,3-dimethylbutanoyl)-N-(1-(2-(cyclopropylamino)-2 oxoacetyl)cyclobutyl)octahydrocyclopenta[c]pyrrole-1-carboxamide] yielded an IC50 in test [2] of 4810 ± 810 nM.
Regarding `CC(C)(C)[C@H](NC(=O)CC12CC3CC(CC(C3)C1)C2)C(=O)N1C[C@@H]2CCC[C@@H]2[C@H]1C(=O)N[C@H](C(=O)C(=O)NC1CC1)c1ccc(F)cc1` [Jun11861, (1S,3aR,6aS)-2-((S)-2-(2-((3S,5S,7S)-adamantan-1-yl)acetamido)-3,3-dimethylbutanoyl)-N—((S)-3-(cyclopropylamino)-1-(4-fluorophenyl)-2,3-dioxopropyl)octahydrocyclopenta[c]pyrrole-1-carboxamide], 350 ± 130 nM corresponded to half-maximal inhibition in test [2] (IC50).
The same measure, in the same setting: to `CC(C)(C)[C@H](NC(=O)CC12CC3CC(CC(C3)C1)C2)C(=O)N1C[C@@H]2CCC[C@@H]2[C@H]1C(=O)N[C@@H](Cc1ccsc1)C(=O)C(=O)NC1CC1` [Jun11818] belongs 120 ± 20 nM.
On the same count and under the same terms, to `CCCC(NC(=O)C1C2CCCC2CN1C(=O)C(NC(=O)CC12CC3CC(CC(O)(C3)C1)C2)C(C)(C)C)C(=O)C(=O)NC1CC1` [Jun922, (1S,3aR,6aS)—N—((S)-1-(cyclopropylamino)-1,2-dioxohexan-3-yl)-2-((S)-2-(2-((1r,3R,5R,7S)-3-hydroxyadamantan-1-yl)acetamido)-3,3-dimethylbutanoyl)octa-hydrocyclopenta[c]pyrrole-1-carboxamide] belongs 400 ± 50 nM.
For `CCC[C@@H](C#N)NC(=O)[C@@H]1[C@H]2CCC[C@H]2CN1C(=O)C(NC(=O)CC12CC3CC(CC(C3)C1)C2)C(C)(C)C` (stereo partly drawn) [Jun11191, (1S,3aR,6aS)-2-((S)-2-(2-((3S,5S,7S)-adamantan-1-yl)acetamido)-3,3-dimethylbutanoyl)-N—((S)-1-cyanobutyl) octahydro-cyclopenta[c]pyrrole-1-carboxamide], the EC50 in test [1] (Enterovirus D, EVD68, RD) is 3920 nM.
Compound `CC(C)(C)C(NC(=O)CC12CC3CC(CC(C3)C1)C2)C(=O)N1CC2CCCC2C1C(=O)NC(C(=O)C(N)=O)C1CCCCC1` [Jun11725, (1S,3aR,6aS)-2-((S)-2-(2-((3S,5S,7S)-adamantan-1-yl)acetamido)-3,3-dimethylbutanoyl)-N—((S)-3-amino-1-cyclohexyl-2,3-dioxopropyl)octahydro-cyclopenta[c]pyrrole-1-carboxamide] yielded an IC50 in test [2] of 190 ± 20 nM.
Still for that read-out and setting: in the case of `COC[C@H](NC(=O)[C@@H]1[C@H]2CCC[C@H]2CN1C(=O)[C@@H](NC(=O)CC12CC3CC(CC(C3)C1)C2)C(C)(C)C)C(=O)C(=O)NC1CC1` [Jun11672, (1S,3aR,6aS)-2-((S)-2-(2-((3S,5S,7S)-adamantan-1-yl)acetamido)-3,3-dimethylbutanoyl)-N—((S)-4-(cyclopropylamino)-1-methoxy-3,4-dioxobutan-2-yl)octahydrocyclopenta[c]pyrrole-1-carboxamide] it was 120 ± 70 nM; in that of `CCCC(NC(=O)C1C2CCCC2CN1C(=O)C(NC(=O)CC1C2CC3CC(C2)CC1C3)C(C)(C)C)C(=O)C(=O)NC1CC1` [Jun1024, (1S)-2-((S)-2-(2-((1S,3S,5S,7S)-adamantan-2-yl)acetamido)-3,3-dimethylbutanoyl)-N—((S)-1-(cyclopropylamino)-1,2-dioxohexan-3-yl)octahydrocyclopenta[c]pyrrole-1-carboxamide], 120 ± 10 nM.
Still for that read-out and setting: in the case of `CC(C)(C)[C@H](NC(=O)CC12CC3CC(CC(C3)C1)C2)C(=O)N1C[C@@H]2CCC[C@@H]2[C@H]1C(=O)N[C@H](C(=O)C(=O)NC1CC1)c1ccccc1` [Jun11817, (1S,3aR,6aS)-2-((S)-2-(2-((3S,5S,7S)-adamantan-1-yl)acetamido)-3,3-dimethylbutanoyl)-N—((S)-3-(cyclopropylamino)-2,3-dioxo-1-phenylpropyl)octahydrocyclopenta[c]pyrrole-1-carboxamide] it was 230 ± 80 nM.
For the compound `CCC[C@H](NC(=O)[C@@H]1[C@H]2CCC[C@H]2CN1C(=O)[C@@H](NC(=O)CC1C2CC3CC(C2)CC1C3)C(C)(C)C)C(=O)C(=O)NC1CC1` (stereo partly drawn) [Jun1024, (1S)-2-((S)-2-(2-((1S,3S,5S,7S)-adamantan-2-yl)acetamido)-3,3-dimethylbutanoyl)-N—((S)-1-(cyclopropylamino)-1,2-dioxohexan-3-yl)octahydrocyclopenta[c]pyrrole-1-carboxamide], the EC50 in test [1] was found to be 180 nM.
Still for that read-out and setting: to `CCC[C@H](NC(=O)[C@@H]1[C@H]2CCC[C@H]2CN1C(=O)[C@@H](NC(=O)C[C@@]12C[C@@H]3C[C@@H](C[C@@](O)(C3)C1)C2)C(C)(C)C)C(=O)C(=O)NC1CC1` [Jun922, (1S,3aR,6aS)—N—((S)-1-(cyclopropylamino)-1,2-dioxohexan-3-yl)-2-((S)-2-(2-((1r,3R,5R,7S)-3-hydroxyadamantan-1-yl)acetamido)-3,3-dimethylbutanoyl)octa-hydrocyclopenta[c]pyrrole-1-carboxamide] belongs 1850 nM.
For `CC(C)(C)[C@H](NC(=O)CC12CC3CC(CC(C3)C1)C2)C(=O)N1C[C@@H]2CCC[C@@H]2[C@H]1C(=O)NC1(C(=O)C(=O)NC2CC2)CCCCC1` [Jun11805, (1S,3aR,6aS)-2-((S)-2-(2-((3S,5S,7S)-adamantan-1-yl)acetamido)-3,3-dimethylbutanoyl)-N-(1-(2-(cyclopropylamino)-2-oxoacetyl)cyclohexyl)octahydrocyclopenta[c]pyrrole-1-carboxamide], the IC50 in test [2] amounted to 740 ± 140 nM.

What is called IC50 is the concentration at which inhibition is half-maximal. A low value points to higher potency. Usually EC50 stands for the concentration at which the effect is half-maximal.

The values are drawn from patent publication US20250051283A1, “THERAPEUTIC COMPOUNDS AND METHODS” (priority 2023, published 2025).
